Reference: patent publication US7608577B2, “Peptidyl ketones as inhibitors of DPIV” (OSI Pharmaceuticals, Inc., priority 2001, dated 2009)

Experiments:
porcine DP II = assay: Inhibition of DPIV-like enzymes: dipeptidyl peptidase II; format: biochemical; details: inhibitor 1*10^−4 M-5*10^−8 M, pH7.6
Description: DP II (3.4.14.2) releases N-terminal dipeptides from oligopeptides if the N-terminus is not protonated (McDonald, J. K., Ellis, S. & Reilly, T. J., 1966, J. Biol. Chem., 241, 1494-1501). Pro and Ala in P1-position are preferred residues. The enzyme activity is described as DPIV-like activity, but DP II has an acidic pH-optimum. The enzyme used was purified from porcine kidney.
100 μl inhibitor in a concentration range of 1*10^−4 M-5*10^−8 M was admixed with 100 μl buffer solution (40 mM HEPES, pH7.6, 0.015% Brij, 1 mM DTT), 50 μl lysylalanylaminomethylcoumarine solution (5 mM) and 20 μl porcine DP II (250fold diluted in buffer solution). Fluorescence measurement was performed at 30° C. and λexcitation=380 nm, λemission=465 nm for 25 min using a plate reader (HTS7000plus, Applied Biosystems, Weiterstadt, Germany). The Ki-values were calculated using Graphit 4.0.15 (Erithacus Software, Ltd., UK).

attractin = attractin (Homo sapiens, UniProt O75882); assay: Inhibition of DPIV-like enzymes: attractin; format: biochemical; details: inhibitor 1 mM to 30 nM, Gly-Pro-pNA 0.4 mM, APN
Chain of attractin (O75882 84-1429, species assumed): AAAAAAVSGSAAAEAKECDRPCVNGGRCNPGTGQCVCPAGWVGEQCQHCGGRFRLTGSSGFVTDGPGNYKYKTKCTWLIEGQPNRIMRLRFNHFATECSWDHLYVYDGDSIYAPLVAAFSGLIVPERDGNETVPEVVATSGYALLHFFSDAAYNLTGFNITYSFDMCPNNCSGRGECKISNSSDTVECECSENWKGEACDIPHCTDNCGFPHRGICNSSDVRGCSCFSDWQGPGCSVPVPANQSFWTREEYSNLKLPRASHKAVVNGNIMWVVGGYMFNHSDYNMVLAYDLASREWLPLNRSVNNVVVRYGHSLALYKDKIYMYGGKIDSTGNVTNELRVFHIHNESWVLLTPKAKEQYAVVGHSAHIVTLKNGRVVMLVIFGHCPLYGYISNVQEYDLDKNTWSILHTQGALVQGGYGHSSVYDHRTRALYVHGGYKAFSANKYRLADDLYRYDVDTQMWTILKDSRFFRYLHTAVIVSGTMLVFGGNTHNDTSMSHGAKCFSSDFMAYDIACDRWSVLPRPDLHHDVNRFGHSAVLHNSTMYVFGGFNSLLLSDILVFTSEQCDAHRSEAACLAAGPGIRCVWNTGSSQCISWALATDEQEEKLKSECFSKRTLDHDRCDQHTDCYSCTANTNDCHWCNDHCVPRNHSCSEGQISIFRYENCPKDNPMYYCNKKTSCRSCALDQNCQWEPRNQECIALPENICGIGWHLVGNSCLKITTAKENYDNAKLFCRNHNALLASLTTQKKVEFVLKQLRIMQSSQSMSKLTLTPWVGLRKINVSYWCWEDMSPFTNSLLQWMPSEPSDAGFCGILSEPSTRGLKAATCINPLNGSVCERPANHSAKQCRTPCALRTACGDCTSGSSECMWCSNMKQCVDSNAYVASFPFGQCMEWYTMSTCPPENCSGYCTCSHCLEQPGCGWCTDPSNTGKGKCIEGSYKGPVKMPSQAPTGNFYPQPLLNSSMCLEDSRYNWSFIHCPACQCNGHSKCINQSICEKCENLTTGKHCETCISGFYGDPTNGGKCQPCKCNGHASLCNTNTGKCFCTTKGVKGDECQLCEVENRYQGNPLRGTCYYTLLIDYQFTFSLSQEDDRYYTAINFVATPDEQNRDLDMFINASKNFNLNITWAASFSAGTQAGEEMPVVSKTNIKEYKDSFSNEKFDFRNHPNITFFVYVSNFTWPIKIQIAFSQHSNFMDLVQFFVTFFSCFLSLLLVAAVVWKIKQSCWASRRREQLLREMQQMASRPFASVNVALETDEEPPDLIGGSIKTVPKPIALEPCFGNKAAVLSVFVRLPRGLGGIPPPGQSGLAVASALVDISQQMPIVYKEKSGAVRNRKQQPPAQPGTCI
Description: 100 μl inhibitor stock solution was mixed with 100 μl buffer (HEPES pH7.6) and 20 μl diluted attractin and preincubated at 30° C. Reaction was started by addition of a mixture of 50 μl substrate (Gly-Pro-pNA, final concentration 0.4 mM) and 2 μl APN stock solution. Formation of the product pNA was measured at 405 nm and 30° C. over 10 min using the HTS 7000Plus plate reader (Perkin Elmer) and slopes were calculated. The final inhibitor concentrations ranged between 1 mM and 30 nM. For calculation of IC50 values, GraFit 4.0.13 (Erithacus Software) was used.

## Br.CC(C)[C@H](NC(=O)[C@H](C)N)C(=O)N1CCC[C@H]1C(=O)COC(=O)c1ccccc1 [H-Ala-Val-Pro-CO—CH2O—CO—Ph*HBr, 2-[(Benzoyloxy-methyl)carbonyl]-1-N-[{(L)-Alanyl}-(L)-Valinyl]-(2S)-pyrrolidine hydrobromide]
Porcine DP II
  inhibition of DP II: No inhibition

## Br.CC(=O)[C@@H]1CCCN1C(=O)[C@@H](NC(=O)[C@H](C)N)C(C)C [H-Ala-Val-Pro-Me*HBr, 2-Methylcarbonyl-1-N-[(L)-Alanyl-(L)-Valinyl]-(2S)-pyrrolidine hydrobromide]
attractin
  inhibition of attractin: No inhibition
